Experimental data published in patent publication US20090069276A1, “Treatment, prevention and amelioration of pulmonary disorders associated with chemotherapy or radiotherapy with active vitamin D compounds or mimics thereof” (Novacea, Inc., priority 2005, published 2009).
Read-outs that look alike come from different tables or passages of the source. Values belong to the molecule of their own block, whether it stands above or below them.

Legend:
[1] = in vivo; cited from earlier work
[2] = test system: patients with androgen independent prostate cancer; settings: Taxotere 36 mg/m^2 weekly, calcitriol 45 μg weekly by HDPA
patients = settings: administered doses; Glover 1988; cited from earlier work
cancer patients [3] = settings: cited from earlier work
[4] = Solubility study of calcitriol in the formulations (light microscopy); format: physicochemical; settings: each formulation of Table 3; prepared at 50° C., cooled to room temperature; highest concentration tested
Protocol: To further assess the formulations of calcitriol, a solubility study was conducted to evaluate the amount of calcitriol soluble in each formulation. Calcitriol concentrations from 0.1 to 0.6 μg calcitriol/mg fomulation were prepared by heating the formulations to 50° C. followed by addition of the appropriate mass of calcitriol. The formulations were then allowed to cool to room temperature and the presence of undissolved calcitriol was determined by a light microscope with and without polarizing light. For each formulation, calcitriol was soluble at the highest concentration tested, 0.6 μg calcitriol/mg formulation.

cancer patients [5] = settings: cited from earlier work; for Patients who developed pneumonia: refractory chronic lymphocytic leukemia
[6] = acute promyelocytic leukemia, Tallman 1997

Molecule: C=C1/C(=C\C=C2/CCC[C@]3(C)C([C@H](C)CC#CC(C)(C)O)=CC[C@@H]23)C[C@@H](O)C[C@@H]1O [Ro23-7553]
- Hypercalcemic effect, in words [1]: reduced hypercalcemic effect

- Patients hospitalized for dyspnea [2]: four
- Patients who developed ARDS [2]: One
Molecule: CC(=O)O[C@@]12CO[C@@H]1C[C@H](O)[C@@]1(C)C(=O)[C@H](O)C3=C(C)[C@@H](OC(=O)[C@H](O)[C@@H](NC(=O)OC(C)(C)C)c4ccccc4)C[C@@](O)([C@@H](OC(=O)c4ccccc4)[C@H]21)C3(C)C [Taxotere®]

Molecule: NCCCNCCSP(=O)(O)O [WR 2721, S-2-(3-aminopropylamino)ethylphosphorothioic acid]
- Patients with emesis (patients): 48%
- Patients with hypotension (patients): 7%

Molecule: CC1=C(/C=C/C(C)=C/C=C/C(C)=C/C(=O)O)C(C)(C)CCC1 [all-trans-retinoic acid]
- Patients who developed grade III or IV pulmonary toxicity (total) (cancer patients [3]; [6]): Twenty
- Patients with lethal pulmonary toxicity (cancer patients [3]; [6]): 2%
- Patients with life-threatening pulmonary toxicity (cancer patients [3]; [6]): 11%
- Patients with severe pulmonary toxicity (cancer patients [3]; [6]): 7%

Molecule: C=C1/C(=C\C=C2/CCC[C@]3(C)[C@@H]([C@H](C)CCCC(C)(C)O)CC[C@@H]23)C[C@@H](O)C[C@@H]1O [calcitriol, 1α,25-hydroxyvitamin D3]
- Calcitriol soluble in formulation [4]: ≥ 0.6 μg calcitriol/mg formulation

Molecule: Nc1nc(F)nc2c1ncn2[C@@H]1O[C@H](COP(=O)(O)O)[C@@H](O)[C@@H]1O [fludarabine phosphate]
- Patients who developed pneumonia (cancer patients [5]; 15-25 mg/m^2 daily for five days every 28 days): 22%
- Patients who developed pneumonia (cancer patients [5]; 22-40 mg/m^2 daily for five days every 28 days): 16%

Molecule: Nc1ccn([C@@H]2O[C@H](CO)[C@@H](O)C2(F)F)c(=O)n1 [gemcitabine]
- Patients with grade III-IV respiratory toxicity (cancer patients [3]; out of 40 bladder cancer patients, 1200 mg/m^2 IV weekly times three on a 4-week cycle, Stadler 1997): 2 patients

Molecule: gemtuzumab: cancer drug given to acute myelogenous patients; product Mylotarg™, Wyeth-Ayerst
- Patients with grade III or IV pneumonia (cancer patients [5]; acute myelogenous patients, 9 mg/m^2 IV over 2 hours, two doses 14 days apart, Mylotarg package insert): 7%
